Data as given in US8859574B2 (IRM LLC, priority 2008, dated 2014).

The compounds below were run against T1, IGF-1R Ba/F3 (Homo sapiens, UniProt P08069) (assay: Ba/F3 Cell Viability Inhibition Assay (IGF-1R Ba/F3)). Details: Tel-TK transformed Ba/F3 cells, 48 hours, Britelite luminescence.
T1 construct: fused on or other part: TEL- (or BCR-) IGF-1R in Ba/F3: the kinase part holds the site
Type: cell-based, murine
Source text: The IC50 of a drug may be determined constructing a dose-response curve and examining the effect of different concentrations of antagonist on reversing agonist activity. IC50 values may be calculated for a given antagonist by determining the concentration needed to inhibit half of the maximum biological response of the agonist. To calculate IC50 values, a series of dose-response data (e.g., drug concentrations x1, x2, . . . , xn and growth inhibition y1, y2, . . . , yn, the values of y are in the range of 0-1) is generated. IC50 values may be determined by a computer-aided system using the formula: y=D+((A−D)/(1+10^(x-log(IC50)B) • where A is the ratio of growth inhibition between lowest drug concentration and control; B is the slope of sigmoidal curvel; and D is the ratio of growth inhibition between highest drug concentration and control.
Ba/F3 is a murine IL-3-dependent pro-B lymphoma cell line. Parental Ba/F3 cells are used to generate a panel of sublines whose proliferation and survival is rendered IL-3-independent by stable transduction with individual tyrosine kinases activated by fusion with the amino-terminal portion of TEL (amino acid 1-375) or BCR. In order to generate Ba/F3 cell lines transformed by Tel-Tyrosine Kinase (TK) fusions, parental Ba/F3 cells are infected with a retrovirus harboring each TEL-fusion kinase and subjected to puromycin selection and IL-3 withdrawal to obtain IL-3-independent, transformed Ba/F3 cells.
Each transformed Ba/F3 cells are cultured in RPMI-1640 media (Gibco Cat #11875093, Carlsbad, Calif.) supplemented with 10% FBS (Hyclone Cat #SV30014.03, Logan, Utah), 4.5 g/L glucose (Sigma #G5400, St. Louis, Mo.), 1.5 g/L sodium bicarbonate (Biowhittaker #17-613E, Walkersville, Md.) and Pen/Strep (Gibco #10378-016, Carlsbad, Calif.). Cells are splitted twice weekly.
The potency of test compounds against various Tel-TK transformed Ba/F3 lines is determined as follows. Exponentially growing BaF3 Tel-TK cells are diluted in fresh medium to 75,000 cells/mL and seeded into 384-well plates (3750 cells/well) at 50 μL/well using a μFill liquid dispenser (BioTek, Winooski, Vt., USA). Duplicate plates are run for each cell line. Test and control compounds are serially diluted with DMSO and arrayed in a polypropylene 384-well plate. […] of compound is transferred into the assay plates using a pin-transfer device, and the plates are incubated at 37° C. (5% CO2) for 48 hours. 25 μL Britelite (Perkin Elmer) is added and luminescence is quantified using Analyst GT (Molecular Devices). Custom curve-fitting software is used to produce a logistic fit of percent cell viability as a function of the logarithm of inhibitor concentration. The IC50 is interpolated as the concentration of compound needed to reduce cell viability to 50% of a DMSO control. Parental Ba/F3 cells that are maintained and cultured in presence of IL-3 (1 ng/ml in final) are diluted in fresh medium containing IL-3 (1 ng/ml in final) to 75,000 cells/mL following the same procedure as described above.

T1 sequence (P08069 999-1274 limits assumed): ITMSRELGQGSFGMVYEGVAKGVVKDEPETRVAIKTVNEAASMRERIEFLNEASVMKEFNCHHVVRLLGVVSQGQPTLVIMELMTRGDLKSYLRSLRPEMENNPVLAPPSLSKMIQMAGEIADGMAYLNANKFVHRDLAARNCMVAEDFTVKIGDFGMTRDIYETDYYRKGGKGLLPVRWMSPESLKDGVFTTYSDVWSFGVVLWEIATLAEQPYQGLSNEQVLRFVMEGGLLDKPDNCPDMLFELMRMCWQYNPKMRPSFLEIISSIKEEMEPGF

Row | SMILES | IC50 [nM]
1 | Cc1cc(Nc2nc(Nc3cc(C)c([C@H]4CCN[C@H](C)C4)cc3F)ncc2Cl)n[nH]1 (relative stereo) [Compound 279, 5-chloro-N2-(2-fluoro-5-methyl-4-((trans)-2-methylpiperidin-4-yl)phenyl)-N4-(5-methyl-1H-pyrazol-3-yl)pyrimidine-2,4-diamine] | 64
2 | Cc1cc(Nc2nc(Nc3cc(C)c([C@H]4CCN[C@@H](C)C4)cc3F)ncc2Cl)n[nH]1 (relative stereo) [Compound 280, 5-chloro-N2-(2-fluoro-5-methyl-4-((cis)-2-methylpiperidin-4-yl)phenyl)-N4-(5-methyl-1H-pyrazol-3-yl)pyrimidine-2,4-diamine] | 163
3 | Cc1cc(Nc2ncc(Cl)c(N[C@H]3CCCCNC3=O)n2)c(F)cc1C1CCN(C)CC1 (single isomer, unassigned) [Compound 10] | 869
4 | Cc1cc(Nc2ncc(Cl)c(N[C@@H]3CCCCNC3=O)n2)c(F)cc1C1CCN(C)CC1 (single isomer, unassigned) [Compound 11] | 65
5 | CNC(=O)CN1CCC[C@H](c2cc(C)c(Nc3ncc(Cl)c(Nc4cc(C)[nH]n4)n3)cc2C)C1 (single isomer, unassigned) [Compound 207] | 26
6 | CNC(=O)CN1CCC[C@@H](c2cc(C)c(Nc3ncc(Cl)c(Nc4cc(C)[nH]n4)n3)cc2C)C1 (single isomer, unassigned) [Compound 208] | 10
7 | Cc1cc(Nc2nc(Nc3cc(C)c(C4CCN(C(=O)[C@@H]5C(O)CCN5C)CC4)cc3F)ncc2Cl)n[nH]1 (stereo in doubt) [Compound 139, (4-(4-(5-chloro-4-(5-methyl-1H-pyrazol-3-ylamino)pyrimidin-2-ylamino)-5-fluoro-2-methylphenyl)piperidin-1-yl)((2S,3R)-3-hydroxy-1-methylpyrrolidin-2-yl)methanone] | 175
8 | Cc1cc(Nc2nc(Nc3cc(C)c(C4CCN(C)CC4)cc3F)ncc2Cl)n[nH]1 [Compound 1, 5-Chloro-N2-(2-fluoro-5-methyl-4-(1-methylpiperidin-4-yl)phenyl)-N4-(5-methyl-1H-pyrazol-3-yl)pyrimidine-2,4-diamine] | 11
9 | Cc1cc(Nc2nc(Nc3cc(C)c(C4CCNCC4)cc3F)ncc2Cl)n[nH]1 [Compound 2, 5-chloro-N2-(2-fluoro-5-methyl-4-(piperidin-4-yl)phenyl)-N4-(5-methyl-1H-pyrazol-3-yl)pyrimidine-2,4-diamine] | 50
10 | Cc1cc(Nc2nc(Nc3cc(C)c(C4CCN(C)CC4)cc3OC(C)C)ncc2Cl)n[nH]1 [Compound 3, 5-chloro-N2-(2-isopropoxy-5-methyl-4-(1-methylpiperidin-4-yl)phenyl)-N4-(5-methyl-1H-pyrazol-3-yl)pyrimidine-2,4-diamine] | 104
11 | Cc1cc(Nc2nc(Nc3cc(C)c(C4CCNCC4)cc3F)ncc2C(F)(F)F)n[nH]1 [Compound 4, N2-(2-fluoro-5-methyl-4-(piperidin-4-yl)phenyl)-N4-(5-methyl-1H-pyrazol-3-yl)-5-(trifluoromethyl)pyrimidine-2,4-diamine] | 150
12 | Cc1cc(Nc2nc(Nc3cc(C)c(C4CCN(C)CC4)cc3OC(C)C)ncc2C)n[nH]1 [Compound 5, N2-(2-isopropoxy-5-methyl-4-(1-methylpiperidin-4-yl)phenyl)-5-methyl-N4-(5-methyl-1H-pyrazol-3-yl)pyrimidine-2,4-diamine] | 805
13 | Cc1cc(Nc2nc(Nc3cc(C)c(C4CCN(C)CC4)cc3C)ncc2Cl)n[nH]1 [Compound 6, 5-chloro-N2-(2,5-dimethyl-4-(1-methylpiperidin-4-yl)phenyl)-N4-(5-methyl-1H-pyrazol-3-yl)pyrimidine-2,4-diamine] | 15
14 | Cc1cc(Nc2nc(Nc3cc(Cl)c(C4CCN(C)CC4)cc3C)ncc2Cl)n[nH]1 [Compound 7, 5-chloro-N2-(5-chloro-2-methyl-4-(1-methylpiperidin-4-yl)phenyl)-N4-(5-methyl-1H-pyrazol-3-yl)pyrimidine-2,4-diamine] | 15
15 | Cc1cc(Nc2nc(Nc3cc(C4CCNCC4)c(F)cc3C)ncc2Cl)n[nH]1 [Compound 8, 5-chloro-N2-(4-fluoro-2-methyl-5-(piperidin-4-yl)phenyl)-N4-(5-methyl-1H-pyrazol-3-yl)pyrimidine-2,4-diamine] | 1930
16 | Cc1cc(Nc2ncc(Cl)c(NC3CCCCNC3=O)n2)c(F)cc1C1CCN(C)CC1 (stereo not drawn) [Compound 9, 3-(5-chloro-2-(2-fluoro-5-methyl-4-(1-methylpiperidin-4-yl)phenylamino)pyrimidin-4-ylamino)azepan-2-one] | 87
17 | Cc1cc(Nc2nc(Nc3cc(C)c(C4CCN(C(C)C)CC4)cc3C)ncc2Cl)n[nH]1 [Compound 12, 5-chloro-N2-(4-(1-isopropylpiperidin-4-yl)-2,5-dimethylphenyl)-N4-(5-methyl-1H-pyrazol-3-yl)pyrimidine-2,4-diamine] | 10
18 | Cc1cc(Nc2nc(Nc3cc(C)c(C4CCCCN4)cc3C)ncc2Cl)n[nH]1 (stereo not drawn) [Compound 14, 5-chloro-N2-(2,5-dimethyl-4-(piperidin-2-yl)phenyl)-N4-(5-methyl-1H-pyrazol-3-yl)pyrimidine-2,4-diamine] | 16
19 | Cc1cc(Nc2nc(Nc3cc(C)c(C4CCCNC4)cc3C)ncc2Cl)n[nH]1 (stereo not drawn) [Compound 15, 5-chloro-N2-(2,5-dimethyl-4-(piperidin-3-yl)phenyl)-N4-(5-methyl-1H-pyrazol-3-yl)pyrimidine-2,4-diamine] | 50
20 | Cc1cc(Nc2nc(Nc3cc(C)c(C4CCCCN4C)cc3C)ncc2Cl)n[nH]1 (stereo not drawn) [Compound 16, 5-chloro-N2-(2,5-dimethyl-4-(1-methylpiperidin-2-yl)phenyl)-N4-(5-methyl-1H-pyrazol-3-yl)pyrimidine-2,4-diamine] | 19
21 | Cc1cc(Nc2ncc(Cl)c(Nc3cc(C4CC4)[nH]n3)n2)c(F)cc1C1CCNCC1 [Compound 17, 5-chloro-N4-(5-cyclopropyl-1H-pyrazol-3-yl)-N2-(2-fluoro-5-methyl-4-(piperidin-4-yl)phenyl)pyrimidine-2,4-diamine] | 160
22 | Cc1cc(C2CCNCC2)c(C)cc1Nc1ncc(Cl)c(Nc2cc(C3CC3)[nH]n2)n1 [Compound 18, 5-chloro-N4-(5-cyclopropyl-1H-pyrazol-3-yl)-N2-(2,5-dimethyl-4-(piperidin-4-yl)phenyl)pyrimidine-2,4-diamine] | 95
23 | Cc1cc(Nc2nc(Nc3cc(C)c(C4CCN(Cc5c(C)noc5C)CC4)cc3F)ncc2Cl)n[nH]1 [Compound 19, 5-Chloro-N2-(4-(1-((3,5-dimethylisoxazol-4-yl)methyl)piperidin-4-yl)-2-fluoro-5-methylphenyl)-N4-(5-methyl-1H-pyrazol-3-yl)pyrimidine-2,4-diamine] | 56
24 | Cc1cc(Nc2nc(Nc3cc(C)c(C4CCN(Cc5c(C)noc5C)CC4)cc3C)ncc2Cl)n[nH]1 [Compound 20, 5-chloro-N2-(4-(1-((3,5-dimethylisoxazol-4-yl)methyl)piperidin-4-yl)-2,5-dimethylphenyl)-N4-(5-methyl-1H-pyrazol-3-yl)pyrimidine-2,4-diamine] | 11
25 | Cc1cc(Nc2nc(Nc3cc(C)c(C4CCN(Cc5ccnnc5)CC4)cc3C)ncc2Cl)n[nH]1 [Compound 21, 5-chloro-N2-(2,5-dimethyl-4-(1-(pyridazin-4-ylmethyl)piperidin-4-yl)phenyl)-N4-(5-methyl-1H-pyrazol-3-yl)pyrimidine-2,4-diamine] | 2
26 | Cc1cc(Nc2nc(Nc3cc(C)c(C4CCN(CCO)CC4)cc3F)ncc2Cl)n[nH]1 [Compound 22, 2-(4-(4-(5-chloro-4-(5-methyl-1H-pyrazol-3-ylamino)pyrimidin-2-ylamino)-5-fluoro-2-methylphenyl)piperidin-1-yl)ethanol] | 59
27 | Cc1cc(Nc2nc(Nc3cc(C)c(C4CCN(CCO)CC4)cc3C)ncc2Cl)n[nH]1 [Compound 23, 2-(4-(4-(5-chloro-4-(5-methyl-1H-pyrazol-3-ylamino)pyrimidin-2-ylamino)-2,5-dimethylphenyl)piperidin-1-yl)ethanol] | 6
